From PubChem BioAssay AID624026 (Broad Institute, 2012) come the findings set out here.

Values joined by “and” are separate entries in the source; they are usually repeats but may differ in a detail not shown here. Identical values can stand only once. Active and inactive are the calls of the source.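 The calls were made as follows: active = compounds reducing cell viability with a fitted AC50 at or below twice their top valid dose; inconclusive = flat curve between -70% and -30%, or an unreliable fit; inactive = the rest.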

The nature of experiment [1]: cell viability loss, ATP luminescence – CellTiter-Glo, 24 h, powder samples, set 7, cytotoxicity control for SR-BI HDL uptake inhibitor project, dose response (AID 624026). To be noted: ldlA[mSR-BI] CHO cells viability, CellTiter-Glo ATP, 24 h; at 35 µM (top of the series). In general terms: ATP-based viability assays read luminescence as a measure of living cells.
In experiment [2] the test system is ldlA[mSR-BI] CHO cells viability, CellTiter-Glo ATP, 24 h. The experiment is described as above.

In general, AC50 refers to the concentration at which the activity in the assay is half-maximal.

For the compound `COCC(=O)N1CCc2cc(-c3csc(NC(=O)c4cc(OC)cc(OC)c4)n3)ccc21`, in experiment [1], the activity change, negative = cytotoxicity is 3.29% (inactive).

As for `CC(C)NC(=O)Nc1cccc2c1O[C@@H](CN(C)S(=O)(=O)c1ccc(Cl)cc1)[C@H](C)CN([C@H](C)CO)C2=O`, in experiment [1], the activity change, negative = cytotoxicity was 3.81% (inactive).

`C[C@@H]1CN([C@H](C)CO)C(=O)c2cc(NC(=O)C3CCOCC3)ccc2O[C@H]1CN(C)S(=O)(=O)c1ccc(Cl)cc1`: in experiment [1], the activity change, negative = cytotoxicity is -3.51% (inactive).

Turning to `CCOc1cc2c3c(c1)C1(C(=O)N3C(C)(C)CC2C)C(C#N)=C(N)N2C(=C1C#N)Nc1ccccc12` (configuration not stated), in experiment [1], the activity change, negative = cytotoxicity was -18.2% (inactive).

On to `O=C1C2C3C=CC(C3)C2C(=O)N1c1cccc(N2C(=O)C3C4C=CC(C4)C3C2=O)n1` (configuration not stated), for which the activity change, negative = cytotoxicity in experiment [1] is -1.42% (inactive).

For `CC(C)NC(=O)Nc1ccc2c(c1)C(=O)N([C@@H](C)CO)C[C@@H](C)[C@@H](CN(C)S(=O)(=O)c1ccc(Cl)cc1)O2`, the activity change, negative = cytotoxicity in experiment [1] was 12.2% (inactive).

Regarding `C=CCOC(=O)N(C)C[C@@H]1Oc2ccc(NC(=O)NC(C)C)cc2C(=O)N([C@H](C)CO[Si](C)(C)C(C)(C)C)C[C@H]1C`, the AC50 in experiment [2] was 21.6 µM.

Consider `C=CCOC(=O)N(C)C[C@@H]1Oc2ccc(NC(=O)OCC3c4ccccc4-c4ccccc43)cc2C(=O)N([C@H](C)CO)C[C@H]1C`, for which the AC50 in experiment [2] is > 70 µM (inactive).

Take `CC(C)NC(=O)Nc1ccc2c(c1)CC(=O)N([C@H](C)CO)C[C@@H](C)[C@H](CN(C)S(=O)(=O)c1ccc(Cl)cc1)O2`: the activity change, negative = cytotoxicity in experiment [1] was 8.33% (inactive).

As for `C[C@@H]1CN([C@H](C)CO)C(=O)c2cc(NC(=O)C3CCCCC3)ccc2O[C@H]1CN(C)S(=O)(=O)c1ccccc1Cl`, the activity change, negative = cytotoxicity in experiment [1] was 2.46% (inactive).

`CC(C)NC(=O)Nc1ccc2c(c1)C(=O)N([C@H](C)CO)C[C@H](C)[C@H](CN(C)S(=O)(=O)c1ccc(Cl)cc1)O2`: the activity change, negative = cytotoxicity in experiment [1] is 1.21% (inactive).

As to `C[C@@H]1CN([C@H](C)CO)C(=O)c2cc(NC(=O)C3CCCCC3)ccc2O[C@H]1CN(C)C(=O)c1ccc(Cl)cc1`, the activity change, negative = cytotoxicity in experiment [1] is -8.49% (inactive).

As for `CC(C)NC(=O)Nc1ccc2c(c1)C(=O)N([C@@H](C)CO)C[C@H](C)[C@H](CN(C)S(=O)(=O)c1ccc(Cl)cc1)O2`, the activity change, negative = cytotoxicity in experiment [1] is 6.98% (inactive).

Take `C[C@@H]1CN([C@H](C)CO)C(=O)c2cc(NC(=O)Cc3cn(C)c4ccccc34)ccc2O[C@H]1CN(C)S(=O)(=O)c1ccc(Cl)cc1`: the activity change, negative = cytotoxicity in experiment [1] is -1.59% (inactive).

Regarding `COc1ccc2c(c1)CC(C1(O)C(=O)N(C)c3ccccc31)C2=O` (configuration not stated), the activity change, negative = cytotoxicity in experiment [1] was -4.38% (inactive).

As for `CC(C)CN(C(=O)COC(=O)C12CC3CC(CC(O)(C3)C1)C2)C1CCS(=O)(=O)C1` (configuration not stated), in experiment [1], the activity change, negative = cytotoxicity was -5.18% (inactive).

For the compound `COc1c(NC(=O)C(=O)c2ccc(OCCN3CCOCC3)c3ccccc23)cc(C(C)(C)C)cc1NS(C)(=O)=O`, the activity change, negative = cytotoxicity in experiment [1] is -29.9% (inactive).

For the compound `C[C@@H]1CN([C@H](C)CO)C(=O)c2cc(NC(=O)Cc3cn(C)c4ccccc34)ccc2O[C@H]1CN(C)S(=O)(=O)c1ccc(F)cc1`, the activity change, negative = cytotoxicity in experiment [1] was 12.8% (inactive).

With `CC(C)NC(=O)Nc1ccc2c(c1)C(=O)N([C@@H](C)CO)C[C@@H](C)[C@H](CN(C)S(=O)(=O)c1ccc(Cl)cc1)O2`, the activity change, negative = cytotoxicity in experiment [1] was 0.1% (inactive).

As for `C=CCOC(=O)N(C)C[C@@H]1Oc2ccc(N)cc2C(=O)N([C@H](C)CO[Si](C)(C)C(C)(C)C)C[C@H]1C`, the AC50 in experiment [2] was > 70 µM (inactive).

For `CC(C)NC(=O)Nc1ccc2c(c1)C(=O)N([C@H](C)CO[Si](C)(C)C(C)(C)C)C[C@@H](C)[C@H](CN(C)S(=O)(=O)c1ccc(Cl)cc1)O2`, in experiment [1], the activity change, negative = cytotoxicity was 2% (inactive).

For `Cc1ccc(OCc2cc(C(=O)N3CCCC(O)C3)no2)cn1` (configuration not stated), the activity change, negative = cytotoxicity in experiment [1] is -3.58% (inactive).

As for `CNC[C@@H]1Oc2ccc(NC(=O)NC(C)C)cc2C(=O)N([C@H](C)CO[Si](C)(C)C(C)(C)C)C[C@H]1C`, the activity change, negative = cytotoxicity in experiment [1] is 0.137% (inactive).

Turning to `C[C@@H]1CN([C@H](C)CO)C(=O)c2cc(NC(=O)C3CCCCC3)ccc2O[C@H]1CN(C)S(=O)(=O)c1ccc(Cl)cc1`, the activity change, negative = cytotoxicity in experiment [1] is 0.365% (inactive).

With `C[C@@H]1CN([C@H](C)CO)C(=O)c2cc(NC(=O)C3CCCCC3)ccc2O[C@H]1CN(C)S(=O)(=O)c1cccc(Cl)c1`, in experiment [1], the activity change, negative = cytotoxicity is -12.5% (inactive).

Turning to `C[C@@H]1CN([C@H](C)CO[Si](C)(C)C(C)(C)C)C(=O)c2cc(NC(=O)C3CCCCC3)ccc2O[C@H]1CN(C)C(=O)c1ccc(Cl)cc1`, the activity change, negative = cytotoxicity in experiment [1] was 1.39% (inactive).

Take `C[C@H](C(=O)NC1CCCC1)N(C(=O)Cn1nnc(-c2ccc3c(c2)OCO3)n1)C1CCCCC1`: the activity change, negative = cytotoxicity in experiment [1] was -3.33% (inactive).

For `CC(C)NC(=O)Nc1ccc2c(c1)C(=O)N([C@H](C)CO)C[C@@H](C)[C@@H](CN(C)S(=O)(=O)c1ccc(Cl)cc1)O2`, the activity change, negative = cytotoxicity in experiment [1] is 4.21% (inactive).

In the case of `O=C(O)CC(C(=O)Nc1cccc(C(F)(F)F)c1)C1CCCO1` (configuration not stated), the activity change, negative = cytotoxicity in experiment [1] was 1.15% (inactive).

Take `Cc1noc(C)c1S(=O)(=O)Nc1ccc2c(c1)C(=O)N([C@H](C)CO)C[C@@H](C)[C@H](CN(C)S(=O)(=O)c1ccc(Cl)cc1)O2`: in experiment [1], the activity change, negative = cytotoxicity was 2.07% (inactive).

For the compound `CC(C)NC(=O)Nc1ccc2c(c1)C(=O)N([C@H](C)CO)C[C@@H](C)[C@H](CN(C)S(=O)(=O)c1ccc(Cl)cc1)O2`, the AC50 in experiment [2] is > 70 µM (inactive). In experiment [1], the activity change, negative = cytotoxicity was 10.4% (inactive) and 2.32% (inactive).
